Experimental data taken from patent publication US20170049717A1, “DRUG FOR TREATMENT OF TINNITUS PATIENTS” (KYORIN PHARMACEUTICAL CO., LTD., priority 2014, published 2017).

Assays:
[1] = target: α9/α10 nicotinic acetylcholine receptors (Rattus norvegicus, UniProt P43144+Q9JLB5); settings: Plazas, et al., Eur J Pharmacol., 2007; cited from earlier work
5-HT3 receptors = target: T1, 5-HT3 receptors (Homo sapiens, UniProt P46098); settings: cited from earlier work
T1 sequence (P46098 24-478): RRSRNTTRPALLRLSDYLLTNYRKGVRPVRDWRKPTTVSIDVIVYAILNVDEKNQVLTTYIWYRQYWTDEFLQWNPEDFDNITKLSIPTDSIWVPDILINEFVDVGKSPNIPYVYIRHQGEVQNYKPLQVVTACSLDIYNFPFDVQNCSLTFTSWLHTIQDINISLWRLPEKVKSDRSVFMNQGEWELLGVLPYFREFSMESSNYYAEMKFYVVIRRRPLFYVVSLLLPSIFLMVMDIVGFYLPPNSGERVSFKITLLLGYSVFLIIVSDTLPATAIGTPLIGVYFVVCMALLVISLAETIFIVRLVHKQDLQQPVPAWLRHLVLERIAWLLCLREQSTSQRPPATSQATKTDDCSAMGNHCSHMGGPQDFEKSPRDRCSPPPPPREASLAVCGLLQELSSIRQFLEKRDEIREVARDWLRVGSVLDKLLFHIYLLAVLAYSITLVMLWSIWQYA

[2] = system: patients with tinnitus associated with sudden hearing loss; experiment: 24-week, placebo controlled, randomized, double-blind comparative trial; TRSw score; type: in vivo, human; settings: for Change in TRSw score, Neramexane: least mean squares (MMRM)
Method: Film coated tablets comprising 12.5 mg neramexane mesylate were produced by the method disclosed in International Patent Publication No. WO2009/033649.
The efficacy of neramexane mesylate on patients with tinnitus associated with sudden hearing loss was evaluated in a 24-week, placebo controlled, randomized, double-blind comparative trial.
The film coated tablets comprising 12.5 mg neramexane mesylate or placebo tablets were administered for 24 weeks to patients having tinnitus. The dosage was started from 12.5 mg/day, and gradually increasing the dose to 50 mg/day over 4 weeks, and maintaining the same dose thereafter.
The therapeutic effect of neramexane mesylate for the patients was evaluated using the TRSw score. Also, the state of anxiety or depression of the patients was evaluated using the HADS score. Statistical analysis was performed using a mixed-effect model repeated measure (MMRM) taking into consideration the covariance structure of error for the patient, with the change in TRSw score from before administration of neramexane mesylate tablets or placebo tablets (0 weeks) to each evaluation time point as the response variable, and with the drug-administered group, evaluation time point, interaction between drug-administered group and evaluation time point, 0-week TRSw score, gender and body weight as […]. The numerical values in the table represent least mean squares for the change in TRSw score at 16 weeks after administration and 24 weeks after administration. A change in score of less than 0 indicates a higher therapeutic effect.

[3] = sudden hearing loss, together with HADS (anxiety) of >10
[4] = sudden hearing loss, together with HADS (depression) of >10
[5] = sudden hearing loss, together with morbidity period of 48 months or longer
[6] = sudden hearing loss, together with suffering period of less than 6 months

Chain of α9/α10 nicotinic acetylcholine receptors (P43144 26-479): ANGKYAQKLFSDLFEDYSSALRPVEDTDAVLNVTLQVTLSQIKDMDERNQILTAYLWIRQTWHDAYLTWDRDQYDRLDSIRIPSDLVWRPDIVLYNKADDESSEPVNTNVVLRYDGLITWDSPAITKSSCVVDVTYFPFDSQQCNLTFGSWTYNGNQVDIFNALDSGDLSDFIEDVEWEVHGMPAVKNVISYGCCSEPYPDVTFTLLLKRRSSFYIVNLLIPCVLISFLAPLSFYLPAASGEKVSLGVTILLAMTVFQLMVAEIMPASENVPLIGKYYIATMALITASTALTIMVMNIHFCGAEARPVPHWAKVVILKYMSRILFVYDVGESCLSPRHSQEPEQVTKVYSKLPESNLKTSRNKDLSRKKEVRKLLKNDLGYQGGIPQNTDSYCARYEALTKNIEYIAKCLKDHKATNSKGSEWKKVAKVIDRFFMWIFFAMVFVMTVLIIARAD
Chain of α9/α10 nicotinic acetylcholine receptors (Q9JLB5 25-447): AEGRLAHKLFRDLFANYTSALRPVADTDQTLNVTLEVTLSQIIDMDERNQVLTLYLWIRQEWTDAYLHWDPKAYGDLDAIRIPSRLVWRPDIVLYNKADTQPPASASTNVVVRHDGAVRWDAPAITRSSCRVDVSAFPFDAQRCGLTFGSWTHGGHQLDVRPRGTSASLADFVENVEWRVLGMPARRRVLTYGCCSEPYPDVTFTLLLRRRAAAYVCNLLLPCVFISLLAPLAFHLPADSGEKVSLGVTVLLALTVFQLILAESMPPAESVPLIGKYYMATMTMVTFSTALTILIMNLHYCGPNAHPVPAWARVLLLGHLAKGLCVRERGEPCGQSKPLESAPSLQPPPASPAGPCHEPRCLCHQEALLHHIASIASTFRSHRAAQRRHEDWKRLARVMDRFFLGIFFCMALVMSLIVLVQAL

CC1(C)CC(C)(C)CC(C)(N)C1 [Neramexane, 1-amino-1,3,3,5,5-pentamethylcyclohexane]
inhibiting activity on α9/α10 nicotinic acetylcholine receptors [1]: exhibits inhibiting activity | inhibiting activity on 5-HT3 receptors (5-HT3 receptors): exhibits inhibiting activity | Change in TRSw score, Neramexane − placebo ([2]; Tinnitus associated with sudden hearing loss): −1.8 | therapeutic effect ([2]; group with a depression value of greater than 10 according to HADS): unexpectedly excellent therapeutic effect | therapeutic effect ([2]; group with a morbidity period of 48 months or longer): unexpectedly excellent therapeutic effect | therapeutic effect ([2]; group with a suffering period of shorter than 6 months): unexpectedly excellent therapeutic effect | therapeutic effect ([2]; group with an anxiety value of greater than 10 according to HADS): unexpectedly excellent therapeutic effect | Change in TRSw score, Neramexane ([2]; change from 0 weeks, up to 50 mg/day, Tinnitus associated with sudden hearing loss): −2.3 | Change in TRSw score, Neramexane [2, 3]: −2.4 | Change in TRSw score, Neramexane [2, 4]: −3.1 | Change in TRSw score, Neramexane [2, 5]: −4.0 | Change in TRSw score, Neramexane [2, 6]: −3.7 | therapeutic effect compared to placebo ([2]; patients affected by tinnitus associated with sudden hearing loss): clear therapeutic effect | Change in TRSw score, Neramexane − placebo [2, 3]: −3.7 | Change in TRSw score, Neramexane − placebo [2, 4]: −3.7 | Change in TRSw score, Neramexane − placebo [2, 5]: −4.2 | Change in TRSw score, Neramexane − placebo [2, 6]: −3.8
